According to patent publication US10272056B2, “Treatment for mitochondrial diseases” (The George Washington University a Congressionally …, priority 2015, dated 2019):

Experiments:
HDAC1-3 enzymes = settings: via the HDAC1-3 enzymes; cited from earlier work
[1] = test system: E17.5 hippocampal progenitor cells; experiment: Neuronal differentiation to stage 3 (β-III tubulin immunostaining); type: cell-based; settings: NaBt 2 mM at 1DIV, read at 3DIV, no glial feeder layer; untreated 20%
Description: FIG. 12A-12B are images from microscopy and a graph showing that NaBt concomitantly increases the mitochondrial biomass of E17.5 hippocampal progenitor cells and their neuronal differentiation. (A) High-resolution tile-stacked confocal micrographs of untreated and NaBt-treated E17.5 hippocampal neurons labeled with β-III tubulin (red) and nuclear counterstain DAPI (blue) at 3DIV with insets showing high magnification of the neuritic network. Scale bar represents 20 μm. (B) Graph of percent of β-III tubulin^+ cells having reached the neuronal stage 3. Mean±S.D. (n=250 cells for each condition; *p=0.0001).
Sodium butyrate-mediated increase in mitochondrial mass correlates with accelerated and enhanced neuronal differentiation of hippocampal progenitor cells. Since broad spectrum HDACis induce neuronal differentiation of adult neural progenitors (reviewed by Lee and Lee, 2010), it was assessed whether increase in mitochondrial mass upon NaBt exposure could accelerate the timing of the neuronal developmental stages of cultured E17.5 hippocampal progenitor cells in the absence of astroglial trophic support. To test this hypothesis, the well-defined chronology of the distinct phenotypic differentiation stages of cultured embryonic hippocampal cells was relied on. […] At 3DIV, cells were immunostained for the pan-neuronal marker β-III tubulin to quantify the percent of cells at stage 3.

CCCC(=O)[O-].[Na+] [NaBt, sodium butyrate]
subset of genes targeted (HDAC1-3 enzymes): 2-5%
percent of neurons advanced to stage 3 [1]: 90%
